Tests used:
[1] = test system: iPSC-derived astrocytes; assay: Calcium transients in iPSC-derived astrocytes in response to stimuli; type: cell-based, human; conditions: DMSO as control treatment, FIG. 15
[2] = as described in Sidrauski et al.; cited from earlier work

**Q.** Which intracellular calcium levels [1] does the source give for `[Cl-].[K+]` [KCL] here?
**A.** Its intracellular calcium levels is “increase of intracellular calcium levels”.

**Q.** What does the source list for `O=C(COc1ccc(Cl)cc1)N[C@H]1CC[C@H](NC(=O)COc2ccc(Cl)cc2)CC1` [trans-ISRIB, N,N′-((1r,4r)-cyclohexane-1,4-diyl)bis(2-(4-chlorophenoxy)acetamide)]?
**A.** IC50 [2]: 5 nM; potency of trans-ISRIB relative to cis-ISRIB [2]: 100 fold

**Q.** For `N[C@@H](CCC(=O)O)C(=O)O` [glutamate], which intracellular calcium levels [1] is on record?
**A.** The intracellular calcium levels was “increase of intracellular calcium levels”.

**Q.** Which intracellular calcium levels [1] does the source give for `Nc1ncnc2c1ncn2[C@@H]1O[C@H](COP(=O)(O)OP(=O)(O)OP(=O)(O)O)[C@@H](O)[C@H]1O` [ATP] here?
**A.** Its intracellular calcium levels is “increase of intracellular calcium levels”.

Reference: patent publication US12729367B2, “Radial glia and astrocyte differentiation from human pluripotent stem cells” (The United States of America, as represented by the …, priority 2020, dated 2026)
